Assay results as given in ChEMBL document CHEMBL1157247, “Bioactive natural and semisynthetic latrunculins” (2006).
≈ marks a conversion by molar mass, not a printed value. Calls of active or inactive are those of the source. The calls are words filed in the database; no cut-off is given here.

Experiments:
Candida albicans = assay: Antifungal activity against Candida albicans ATCC 10231 by modified microtiter plate assay; assay type: functional
Saccharomyces cerevisiae = assay: Antifungal activity against Saccharomyces cerevisiae by modified microtiter plate assay; assay type: functional
Bacillus cereus = assay: Antibacterial activity against Bacillus cereus by modified microtiter plate assay; assay type: functional
Staphylococcus aureus = assay: Antibacterial activity against Staphylococcus aureus ATCC 6535 by modified microtiter plate assay; assay type: functional
Mus musculus [1] = species: Mus musculus; assay: Antiproliferative activity against mouse B16B15b cells at 1 uM after 18 hrs by alamar blue assay relative to control; assay type: functional, cell-based
Gallus gallus [2] = species: Gallus gallus; assay: Antiangiogenic activity in fertilized white leghorn chicken eggs at 57 uM/disk by CAM assay; assay type: functional; conditions: Egg
Gallus gallus [3] = species: Gallus gallus; assay: Antiangiogenic activity in fertilized white leghorn chicken eggs at 12 uM/disk by CAM assay; assay type: functional; conditions: Egg
Mus musculus [4] = species: Mus musculus; assay: Inhibition of mouse B16B15b cell migration at 1 uM by Boyden's camber assay; assay type: functional
Mus musculus [5] = species: Mus musculus; assay: Inhibition of mouse B16B15b cell migration assessed as wound closure rate at 1 uM after 14 hrs by wound healing assay relative to control; assay type: functional

Structure (SMILES) | MIC (Candida albicans) [µM] | MIC (Saccharomyces cerevisiae) [µM] | Activity (Mus musculus [1]) | other results
C/C1=C/C(=O)O[C@@H]2CC(CC[C@H](C)/C=C\C=C\CC1)O[C@@](O)([C@H]1CSC(=O)N1)C2 | 2.5 (≈ 1.05 µg/mL) | 2.5 (≈ 1.05 µg/mL) |  | 
CC(=O)N1C(=O)SC[C@H]1C(=O)/C=C/C[C@H]1CC[C@H](C)/C=C\CC/C(C)=C\C(=O)O1 | 2.5 (≈ 1.05 µg/mL) | 2.5 (≈ 1.05 µg/mL) | Active | MIC (Bacillus cereus): 17.8 µM (≈ 7.47 µg/mL); MIC (Staphylococcus aureus): 17.8 µM (≈ 7.47 µg/mL)
COc1cc(/C=C/C(=O)CC(=O)/C=C/c2ccc(O)c(OC)c2)ccc1O |  |  |  | Activity (Gallus gallus [2]): Active
CO[C@]1([C@@H]2CSC(=O)N2)C[C@H]2C[C@@H](CC[C@H](C)/C=C\CC/C(C)=C\C(=O)O2)O1 [15-METHOXYLATRUNCULIN B] | 2.5 (≈ 1.02 µg/mL) | 2.5 (≈ 1.02 µg/mL) |  | Activity (Gallus gallus [3]): Active; Activity (Mus musculus [4]): Active
CCCCO[C@]1([C@@H]2CSC(=O)N2)C[C@H]2C[C@@H](CC[C@H](C)/C=C\CC/C(C)=C\C(=O)O2)O1 [15-O-BUTYLLATRUNCULIN B] | 2.5 (≈ 1.13 µg/mL) | 2.5 (≈ 1.13 µg/mL) | Active | 
CCCCCCCCO[C@]1([C@@H]2CSC(=O)N2)C[C@H]2C[C@@H](CC[C@H](C)/C=C\CC/C(C)=C\C(=O)O2)O1 [15-O-OCTYLLATRUNCULIN B] | 2.5 (≈ 1.27 µg/mL) | 2.5 (≈ 1.27 µg/mL) | Active | MIC (Bacillus cereus): 14.7 µM (≈ 7.46 µg/mL); MIC (Staphylococcus aureus): 14.7 µM (≈ 7.46 µg/mL)
Clc1ccccc1C(c1ccccc1)(c1ccccc1)n1ccnc1 [CLOTRIMAZOLE] | 21.7 (≈ 7.48 µg/mL) | 21.7 (≈ 7.48 µg/mL) |  | 
C/C1=C/C(=O)O[C@@H]2C[C@@H](CC[C@H](C)/C=C\CC1)O[C@@](O)([C@@H]1CSC(=O)N1)C2 [LATRUNCULIN B] | 2.5 (≈ 0.989 µg/mL) | 2.5 (≈ 0.989 µg/mL) | Active | Activity (Mus musculus [5]): Active
CC(=O)N1C(=O)SC[C@H]1[C@@]1(O)C[C@H]2C[C@@H](CC[C@H](C)/C=C\CC/C(C)=C\C(=O)O2)O1 [N-ACETYLLATRUNCULIN B] | 2.5 (≈ 1.09 µg/mL) | 2.5 (≈ 1.09 µg/mL) |  | Activity (Mus musculus [5]): Active
C/C1=C/C(=O)O[C@@H]2C[C@@H](CC[C@H](C)/C=C\CC1)O[C@@](O)([C@@H]1CSC(=O)N1CO)C2 [N-HYDROXYMETHYLLATRUNCULIN B] | 2.5 (≈ 1.06 µg/mL) | 2.5 (≈ 1.06 µg/mL) |  | Activity (Mus musculus [4]): Active
CC1(C)S[C@@H]2[C@H](NC(=O)Cc3ccccc3)C(=O)N2[C@H]1C(=O)O [PENICILLIN G] |  |  |  | MIC (Bacillus cereus): 22.4 µM (≈ 7.49 µg/mL); MIC (Staphylococcus aureus): 22.4 µM (≈ 7.49 µg/mL)
